Assays:
MCF7 [1] = assay: Cytotoxicity against human MCF7 cells assessed as inhibition of cell viability at 30 uM after 48 hrs by SRB assay; assay type: functional; settings: MCF7, 48 h
[2] = Cytotoxicity against human PANC1 cells assessed as inhibition of cell viability after 48 hrs by SRB assay; assay type: functional, cell-based; settings: PANC-1, 48 h
HepG2 = assay: Cytotoxicity against human HepG2 cells assessed as inhibition of cell viability after 48 hrs by SRB assay; assay type: functional, cell-based; settings: HepG2, 48 h
MCF7 [3] = assay: Cytotoxicity against human MCF7 cells assessed as inhibition of cell viability after 48 hrs by SRB assay; assay type: functional, cell-based; settings: MCF7, 48 h
HT-29 = assay: Cytotoxicity against human HT-29 cells assessed as inhibition of cell viability after 48 hrs by SRB assay; assay type: functional, cell-based; settings: HT-29, 48 h
SK-OV-3 = assay: Cytotoxicity against human SKOV3 cells assessed as inhibition of cell viability after 48 hrs by SRB assay; assay type: functional, cell-based; settings: SK-OV-3, 48 h
A549 = assay: Cytotoxicity against human A549 cells assessed as inhibition of cell viability after 48 hrs by SRB assay; assay type: functional, cell-based; settings: A549, 48 h
HeLa = assay: Cytotoxicity against human HeLa cells assessed as inhibition of cell viability after 48 hrs by SRB assay; assay type: functional, cell-based

SMILES | inhibition at 30 µM (MCF7 [1]) | IC50 [2] | IC50 (HepG2) | IC50 (MCF7 [3]) | IC50 (HT-29) | IC50 (SK-OV-3) | IC50 (A549) | IC50 (HeLa)
Cc1[nH]c(/C=C2\C(=O)Nc3ncc(Br)cc32)c(C)c1C(=O)NC1CC1 | 5.5% | – | – | – | – | – | – | –
CCN(CC)CCNC(=O)c1c(C)[nH]c(/C=C2\C(=O)Nc3ccc(F)cc32)c1C [SUNITINIB] | 94% | 14.9 µM | 16.1 µM | 25.4 µM | 4.7 µM | 9.21 µM | 7.93 µM | > 30 µM
Cc1[nH]c(/C=C2\C(=O)Nc3ncc(F)cc32)c(C)c1C(=O)NCCN1CCCC1 | 37.5% | – | – | – | – | – | – | –
Cc1[nH]c(/C=C2\C(=O)Nc3ncc(F)cc32)c(C)c1C(=O)NCC(C)O (configuration not stated) | 0% | – | – | – | – | – | – | –
Cc1[nH]c(/C=C2\C(=O)Nc3ncc(F)cc32)c(C)c1C(=O)NCC1CCN(C)CC1 | 78% | > 30 µM | 21.2 µM | > 30 µM | 5.72 µM | – | – | –
Cc1[nH]c(/C=C2\C(=O)Nc3ncc(F)cc32)c(C)c1C(=O)NCCN1CCOCC1 | 15.6% | – | – | – | – | – | – | –
Cc1[nH]c(/C=C2\C(=O)Nc3ncc(F)cc32)c(C)c1C(=O)NCCN(C)C | 61.1% | – | – | – | – | – | – | –
CCN(CC)CCNC(=O)c1c(C)[nH]c(/C=C2\C(=O)Nc3ncc(F)cc32)c1C | 70.7% | > 30 µM | 15 µM | > 30 µM | 6.27 µM | – | – | –
Cc1[nH]c(/C=C2\C(=O)Nc3ncc(F)cc32)c(C)c1C(=O)NCCOCc1ccccc1 | 4.1% | – | – | – | – | – | – | –
Cc1[nH]c(/C=C2\C(=O)Nc3ncc(Br)cc32)c(C)c1C(=O)O | 19.6% | – | – | – | – | – | – | –
CCOC(=O)c1c(C)[nH]c(/C=C2\C(=O)Nc3ncc(Cl)cc32)c1C | 54.8% | – | – | – | – | – | – | –
CCOC(=O)c1c(C)[nH]c(/C=C2\C(=O)Nc3ncc(Br)cc32)c1C | 6.3% | – | – | – | – | – | – | –
Cc1[nH]c(/C=C2\C(=O)Nc3ncc(Cl)cc32)c(C)c1C(=O)NCC1CCN(C)CC1 | 88.4% | > 30 µM | 12.7 µM | > 30 µM | 5.57 µM | 16.4 µM | 16.9 µM | > 30 µM
Cc1[nH]c(/C=C2\C(=O)Nc3ncc(Br)cc32)c(C)c1C(=O)NCCN1CCOCC1 | 6% | – | – | – | – | – | – | –
Cc1[nH]c(/C=C2\C(=O)Nc3ncc(Cl)cc32)c(C)c1C(=O)NCCN1CCCC1 | 91.3% | 10.3 µM | 7.87 µM | 15.6 µM | 12.5 µM | 16.1 µM | 11.4 µM | 24.5 µM
Cc1[nH]c(/C=C2\C(=O)Nc3ncc(Cl)cc32)c(C)c1C(=O)NCCN1CCOCC1 | 6% | – | – | – | – | – | – | –
Cc1[nH]c(/C=C2\C(=O)Nc3ncc(Cl)cc32)c(C)c1C(=O)O | 15.8% | – | – | – | – | – | – | –
Cc1[nH]c(/C=C2\C(=O)Nc3ncc(Cl)cc32)c(C)c1C(=O)NCCN(C)C | 45.7% | – | – | – | – | – | – | –
CCN(CC)CCNC(=O)c1c(C)[nH]c(/C=C2\C(=O)Nc3ncc(Br)cc32)c1C | 89.7% | 15.6 µM | 12 µM | 27.8 µM | 3.99 µM | 11.8 µM | 6.46 µM | 26.7 µM
Cc1[nH]c(/C=C2\C(=O)Nc3ncc(F)cc32)c(C)c1C(=O)NC1CC1 | 6.3% | – | – | – | – | – | – | –
Cc1[nH]c(/C=C2\C(=O)Nc3ncc(Br)cc32)c(C)c1C(=O)NCC1CCN(C)CC1 | 82.8% | 26.9 µM | 21.8 µM | > 30 µM | 5.57 µM | 19.2 µM | 15.2 µM | > 30 µM
Cc1[nH]c(/C=C2\C(=O)Nc3ncc(F)cc32)c(C)c1C(=O)O | 20.5% | – | – | – | – | – | – | –
Cc1[nH]c(/C=C2\C(=O)Nc3ncc(Br)cc32)c(C)c1C(=O)NCCN(C)C | 79.4% | 11.6 µM | 6.57 µM | 14.1 µM | 5.04 µM | 4.98 µM | 4.57 µM | 17.9 µM
Cc1[nH]c(/C=C2\C(=O)Nc3ncc(F)cc32)c(C)c1C(=O)NCCOc1ccccc1 | 2.8% | – | – | – | – | – | – | –
Cc1[nH]c(/C=C2\C(=O)Nc3ncc(Br)cc32)c(C)c1C(=O)NCCN1CCCC1 | 86.9% | 6.2 µM | 9.36 µM | 15.1 µM | 4.49 µM | 5.15 µM | 4.82 µM | 15.4 µM
CCOC(=O)c1c(C)[nH]c(/C=C2\C(=O)Nc3ncc(F)cc32)c1C | 60.4% | – | – | – | – | – | – | –
Cc1[nH]c(/C=C2\C(=O)Nc3ncc(Cl)cc32)c(C)c1C(=O)NC1CC1 | 6.2% | – | – | – | – | – | – | –
CCN(CC)CCNC(=O)c1c(C)[nH]c(/C=C2\C(=O)Nc3ncc(Cl)cc32)c1C | 88.9% | 14 µM | 12.4 µM | 26.3 µM | 6.93 µM | 8.28 µM | 10.3 µM | 29.4 µM

Source: ChEMBL document CHEMBL3596147, “Synthesis and antitumor activity of 5-(5-halogenated-2-oxo-1H-pyrrolo[2,3-b]pyridin-(3Z)-ylidenemethyl)-2,4-dimethyl-1H-pyrrole-3-carboxamides” (Bioorg Med Chem Lett, 2015)
